Experimental data taken from patent US9133231B2, “Compounds for treating bacterial infections” (Yissum Research Development Company of the Hebrew …, priority 2010, dated 2015).

Tests used:
Assay type in all cases: cell-based
B. subtilis [1] = test: Mature spore formation after induced sporulation (heat shock, CFU count)
Description: Cells were grown to an OD600 of 0.5. They were then washed with synthetic medium on a membrane filter and suspended in synthetic medium lacking amino acids in order to induce them to sporulate in the presence and the absence of inhibitors. Sporulation was monitored by fluorescence microscopy.
In order to further evaluate the effect of compounds A2 on sporulation, wild type bacteria were induced to sporulate in the presence of different concentrations (from 200 to 1.8 mM) of compound A2 and the process was monitored using fluorescence microscopy. With the aim of learning about the fate of the spores formed in the previously described cultures, an aliquot from the cell culture was taken and subjected to heat treatment (heat shock). The treatment included exposure of the cultures to 80° C. for 15 minutes and further plating on LB plates. After incubating the plates for 15 hours at 37° C., the colony forming units (CFUs) were quantified and the percent of mature spore formation was calculated (FIG. 2B-C).
The influence of the timing of addition of A2 was evaluated. Bacteria were induced to sporulate and A2 (1.8 mM) was added to the cultures every two hours (at T=0, T=2, T=4 and T=6). After growing overnight the cultures were heated and plated on LB plates.

B. subtilis [2] = test: Growth and survival of B. subtilis growing in LB medium (CFU); details: 1.8 mM added at OD600 of 0.2, LB medium, 37° C.; FIG. 3
Description: The effect of A2 on growth and survival of B. subtilis growing in LB medium was then evaluated. Bacteria were grown overnight at 23° C. and diluted to an OD600 of 0.05. Subsequently, bacteria were further grown at 37° C. and A2 (1.8 mM) was added at an OD600 of 0.2. Bacterial growth was then continuously monitored by measuring the turbidity of the medium at 600 nm (OD600). Samples were taken and plated on LB plates. The plates were incubated at 37° C. for 15 hours. Colony forming units (CFU) were counted and compared to the untreated culture.

B. subtilis [3] = test: Bacterial survival in CH medium (CFU after 24 hours of growth)
Description: Bacteria were grown in CH medium and samples were taken and plated on LB plates after 24 hours of growth. The plates were incubated at 37° C. for 15 hours. Colony forming units (CFU) were counted and compared to the untreated culture.
(§1) Cytotoxicity of compound A2 on eukaryotic (A431) and prokaryotic cells (B. Subtilis) was determined by using the methylthiazolyldiphenyl-tetrazolium bromide (MTT) assay. Bacteria were grown in CH medium and samples were taken and plated on LB plates after 24 hours of growth. The plates were incubated at 37° C. for 15 hours. Colony forming units (CFU) were counted and compared to the untreated culture. Viable bacterial cells are counted as CFU/mL: colony forming units per milliliter. Each CFU is equivalent to viable cell.

[4] = system: A431 Epidermoid carcinoma cells; test: MTT cytotoxicity assay on A431 cells; details: 72 hours incubation, up to 10 different concentrations, FIG. 8
Description: as §1
In a standard procedure, the cell line (A431: epidermoid carcinoma) was incubated for 24 hours in 37° C. and 5% CO2. Subsequently, compound A2 was added to the wells in up to 10 different concentrations. Subsequent to incubation of cells with A2 for an additional 72 hours, the MTT reagent was added.

CC(C)C(=O)Nc1nc2c(ncn2[C@H]2CC(OC(=O)NCC(=O)NCC(=O)O)[C@@H](COC(=O)NCC(=O)NCC(=O)O)O2)c(=O)[nH]1 (stereo partly shown) [Compound A2]
reduction of the formation of mature spores (B. subtilis [1]; 0.22 mM (lowest tested concentration), heat shock 80° C. 15 minutes, CFU, FIG. 2B-C): about 70% | inhibition at 1800 µM (B. subtilis [1]; Bacillus subtilis, 1.8 mM added at T=0, T=2, T=4 or T=6 after inducing sporulation, in every case, FIG. 7, read-out: inhibition of the formation of mature spores): > 80% | inhibition of sporulation (B. subtilis [1]; rest of the tested concentrations (above 0.22 mM, up to 1.8 mM), FIG. 2B-C): 100% | number of CFUs compared to the untreated culture (B. subtilis [2]): substantially reduced the number of CFUs | cytotoxicity to B. Subtilis cells (prokaryotic) (B. subtilis [3]; CFU/mL after 24 hours of growth in CH medium, FIG. 8): completely cytotoxic | CFU/mL of the treated cultures (B. subtilis [3]; CH medium, after 24 hours of growth, increasing concentrations, FIG. 6): decreases in a dose dependent fashion | cytotoxicity to A431 cells (eukaryotic) [4]: not to A431 cells
